Assay [1] has as its system releasing of lysozomal enzyme from the neutrocytes of rat. Nature of the assay: Inhibitory effect against the releasing of lysozomal enzyme from the neutrocytes of rat. The assay is classed as cell-based. The conditions noted are these: rat neutrocytes 5×10^5 cells/ml; FMLP 10^-6 M + cytocharasin B 5 μg/ml; OD540. The procedure:
Inhibitory effect against the releasing of lysozomal enzyme from the neutrocytes of rat
The neutrocytes of rat were samples from the abdominal cavity of rat 16 hours after the administration of 10 ml of 1% casein solution (physiological saline solution).
Reaction of the releasing of lysozomal enzyme from the neutrocytes of rat was determined by means of the method as described in an article written by T. Matsumoto, K. Takeshige and S. Minakami: Biochemical and Biophysical Research Communications, Vol. 88, No. 3, pp 974-979, (1979).
The neutrocytes being sampled were added to Hank's solution so as to make the concentration thereof as 5×10^5 cells/ml, the test compound of piperazine derivative of the present invention was added thereto to make the test group sample. On the other hand, water was added in place of the piperazine derivative of the present invention to make the control group sample. Each of the test group samples and the control group samples were subjected to pre-incubation at 37° C. for 1 minute.
As to the stimulating agents, 10^-6 M of FMLP (formylmethionyl leucyl phenylalanine) and 5 μg/ml of cytocharasin B solution were added to the test solutions. Thus obtained mixture of the solution was reacted by incubating for 15 minutes. After the incubation, the mixture of the solution was subjected to centrifugation at 2,000 rpm for 10 minutes. The supernatant (0.2 ml) was admixed with 0.5 ml of 0.1 M-acetic acid buffer solution (pH 4.5) in which 0.2 mM of phenolphthalein glucuronic acid was dissolved. Then the resulting mixture of the solution was reacted at 37° C. for 5 hours by incubation. After the reaction, 1N-NaOH solution was added to the reaction mixture so as to make the pH value thereof to pH 8 to 9, and the optical absorbance of both test group samples and control group samples were determined at 540 nm (OD540).
The 50% inhibitory concentration (IC50) values were obtained by calculation as the ratio of OD540 of the test group sample to that of the control group sample.

The subject of assay [2] is superoxide radicals (O2^-) released from the peritoneal macrophage cells of guinea pig. Nature of the assay: Inhibitory effect against superoxide radicals (O2^-) released from the peritoneal macrophage cells of guinea pig by stimulation (FMLP). The assay is classed as cell-based. Conditions: Cavia porcellus, Peritoneal macrophage cell; guinea pig peritoneal macrophages 2×10^6 cells/ml; FMLP 10^-7 M; cytochrome C reduction, OD550. The protocol: Inhibitory effect against superoxide radicals (O2^-) released from the peritoneal macrophage cells of guinea pig by stimulation:
Mineral oil (15 ml)was intraperitoneally administered to a guinea pig, then 96 hours after the administration, the peritoneal macrophage cells were sampled.
Superoxide radicals (O2^-) were determined by means of reduction of cytochrome C method according to the procedure described in an article written by T. Matsumoto, K. Takeshige and S. Minakami: Biochemical and Biophysical Research Communications, Vol. 88, No. 3, pp. 974-979, (1979).
Into 1 ml of 80 μM-cytochrome C solution, the peritoneal macrophage cells were added to make the final concentration of 2×10^6 cells/ml, then each one of the test compounds of the present invention was added thereto to make the test group sample. On the other hand, water was added in place of the test compound of the present invention to make the control group sample. Each of the test group samples and the control group samples were subjected to pre-incubation at 37° C. for 1 minute.
As to the stimulating agent for releasing superoxide radicals (O2^-), FMLP (formylmethionyl leucyl phenylalanine)was added to each one of the test sample solutions and the control group samples to make the final concentration of FMLP to 10^-7 M, then the sample solutions were subjected to additional reaction by incubation for 1 minute.
Difference between the optical absorbances measured at 550 nm (OD550) of both test group samples and control group samples were determined, the 50% inhibitory concentration (IC50) was obtained by calculating as the ratio of OD550 of the test group sample to that of the control group sample.

For assay [3], the system named is releasing of hydrogen peroxide (H2 O2) from the neutrocyte of abdominal cavity of rat. Nature of the assay: Inhibitory effect against the releasing of hydrogen peroxide (H2O2) from the neutrocyte of abdominal cavity of rat. The format is cell-based, SD-strain rat. The conditions noted are these: rat neutrocytes 10^6 cells/ml; FMLP 2×10^-6 M; 37° C., 1 hour; OD610. The procedure:
Inhibitory effect against the releasing of hydrogen peroxide (H2 O2) from the neutrocyte of abdominal cavity of rat
1%-Casein solution was administered to the abdominal cavity of a SD-strain rat, then 16 hours after the administration, the neutrocytes were obtained by washing the abdominal cavity. Thus obtained neutrocytes were washed with Hank's solution.
In to a reaction mixture consisting of the following ingredients:
______________________________________
HRP (Horse Radish peroxide)
HEPES [N-(2-Hydroxyethyl)pipera-
zine N'-2-ethanesulfonic acid]
Rat neutrocytes 10^6 cells/ml
the test compound was added, then the whole mixture was incubated at 37° C. for 1 hour, and the mixture was subjected to a centrifugal separation at 2,000 rpm for minutes. After the centrifugal separation, 1 ml of the supernatant was sampled and 10 μl of 1N-NaOH aqueous solution was added thereto. Then, the optical absorbance at 610 nm (OD610) of the supernatant was determined by means of using a spectro-photometer.
The IC50 (50% inhibitory concentration) of the test compound was obtained by calculating as the ratio of OD610 of the test group sample to that of the control group sample.

Converted amounts (≈) assume the structure as drawn.

Take `CC(C)C[C@H]1C(=O)N[C@](Cc2ccccc2)(C(=O)Nc2nc3ccccc3s2)C(=O)N1O` (racemic) [Example 27, (3RS,6SR)-3-(benzothiazol-2-yl)carbamoyl-3-benzyl-1-hydroxy-6-isobutylpiperazine-2,5-dione]: the IC50 is 3 µg/mL in assay [1] and 0.25 µg/mL (≈ 0.552 µM) in assay [2].

`COc1cccc(CNC(=O)[C@@]2(C)NC(=O)[C@H](CC(C)C)N(O)C2=O)c1` (racemic) [Example 29, (3RS,6SR)-1-hydroxy-6-isobutyl-3-[N-(3-methoxybenzyl)]carbamoyl-3-methylpiperazine-2,5-dione]: the results for the IC50 in assay [1], in assay [3] and in assay [2] were 2 µg/mL, 5 µg/mL (≈ 13.8 µM) and 3 µg/mL (≈ 8.26 µM), respectively.

In turn, `COc1cc(C[C@@H]2NC(=O)[C@H](CC(C)C)N(O)C2=O)cc(OC)c1OC` (relative stereo) [Example 15] gave a concentration for half-maximal inhibition (IC50) in assay [3] of less than 3 µg/mL.

Regarding `COc1cc(C[C@@H]2NC(=O)[C@@H](CC(C)C)N(O)C2=O)cc(OC)c1OC` (relative stereo) [Example 16], the IC50 in assay [3] is less than 3 µg/mL; in assay [2], 30 µg/mL (≈ 81.9 µM). `COc1cc(C[C@@H]2NC(=O)[C@H](CC(C)C)N(O)C2=O)cc(OC)c1O` (relative stereo) [Example 17] displayed an IC50 in assay [3] of less than 3 µg/mL. Still for that read-out and setting: in the case of `COc1ccc(C[C@@H]2NC(=O)[C@H](CC(C)C)N(O)C2=O)c(OC)c1` (relative stereo) [Example 18] it was 5 µg/mL (≈ 14.9 µM). As to `COc1ccc(C[C@@H]2NC(=O)[C@@H](CC(C)C)N(O)C2=O)c(OC)c1` (relative stereo) [Example 19], the IC50 in assay [3] came to 5 µg/mL (≈ 14.9 µM); in assay [2], 30 µg/mL (≈ 89.2 µM).

Regarding `COc1cccc(CNC(=O)[C@]2(Cc3ccccc3)NC(=O)[C@@H](CC(C)C)N(O)C2=O)c1` (relative stereo) [Example 28], the IC50 turned out to be 3 µg/mL in assay [1] and 3 µg/mL (≈ 6.83 µM) in assay [2]. In assay [3], `CCOC(=O)[C@H]1NC(=O)[C@@H](Cc2c[nH]c3ccccc23)N(O)C1=O` (relative stereo) [Example 55] displayed an IC50 of 3 µg/mL (≈ 9.05 µM).

On to `CC(C)C[C@H]1C(=O)N[C@@H](Cc2ccccc2)C(=O)N1O` [Example 9, (3S, 6s)-3-benzyl-1-hydroxy-6-isobutylpiperazine-2,5-dione], for which, in assay [3], the IC50 is less than 6 µg/mL. Turning to `CC(C)C[C@@H]1C(=O)N[C@@H](Cc2ccccc2)C(=O)N1O` [Example 10, (3S,6R)-3-Benzyl-1-hydroxy-6-isobutylpiperazine-2,5-dione], in assay [2], the IC50 was 18 µg/mL (≈ 65.1 µM). With `CC(C)C[C@@H]1C(=O)N[C@@H](Cc2ccc(O)cc2)C(=O)N1O` [Example 11], the IC50 in assay [3] is 6 µg/mL (≈ 20.5 µM). As to `CC(C)C[C@H]1C(=O)N[C@@H](Cc2cc(Cl)c(O)c(Cl)c2)C(=O)N1O` [Example 20], the IC50 is 30 µg/mL in assay [1] and 30 µg/mL (≈ 83.1 µM) in assay [2]. Consider `CC(C)C[C@@H]1C(=O)N[C@@H](Cc2cc(Cl)c(O)c(Cl)c2)C(=O)N1O` [Example 21], for which the IC50 in assay [3] is 10 µg/mL (≈ 27.7 µM). As to `CC(C)C[C@@H]1C(=O)N[C@@H](Cc2cn(Cc3ccccc3)cn2)C(=O)N1O` [Example 26], the IC50 is 3 µg/mL (≈ 8.42 µM) in assay [3] and 6 µg/mL (≈ 16.8 µM) in assay [2]. As to `CC(C)C[C@@H]1NC(=O)[C@H](Cc2c[nH]c3ccccc23)N(O)C1=O` [Example 47, (3S,6S)-1-Hydroxy-6-(3-indolylmethyl)-3-isobutylpiperazine-2,5-dione], the IC50 in assay [2] was 10 µg/mL (≈ 31.7 µM). For the compound `CC(C)C[C@@H]1NC(=O)[C@@H](Cc2c[nH]c3ccccc23)N(O)C1=O` [Example 48, (3S, 6R)-1-Hydroxy-6-(3-indolylmethyl)-3-isobutylpiperazine-2,5-dione], the IC50 in assay [3] is less than 3 µg/mL. With `O=C1N[C@@H](Cc2ccccc2)C(=O)N(O)[C@H]1Cc1c[nH]c2ccccc12` [Example 49], the results for the IC50 in assay [3] and in assay [2] were less than 3 µg/mL and 10 µg/mL (≈ 28.6 µM), respectively. In assay [3], `O=C1N[C@@H](Cc2ccccc2)C(=O)N(O)[C@@H]1Cc1c[nH]c2ccccc12` [Example 50] showed an IC50 of less than 3 µg/mL.

Turning to `CSCC[C@@H]1NC(=O)[C@H](Cc2c[nH]c3ccccc23)N(O)C1=O` [Example 51], the IC50 in assay [3] and in assay [2] was 3 µg/mL (≈ 9 µM) each time.

`CSCC[C@@H]1NC(=O)[C@@H](Cc2c[nH]c3ccccc23)N(O)C1=O` [Example 52]: the half-maximal inhibitory concentration (IC50) in assay [2] turned out to be 6 µg/mL (≈ 18 µM). As to `O=C1N[C@@H](COCc2ccccc2)C(=O)N(O)[C@H]1Cc1c[nH]c2ccccc12` [Example 53], the IC50 in assay [2] was 30 µg/mL (≈ 79.1 µM). `O=C1N[C@@H](COCc2ccccc2)C(=O)N(O)[C@@H]1Cc1c[nH]c2ccccc12` [Example 54] came in with a half-inhibitory concentration (IC50) in assay [3] of 3 µg/mL (≈ 7.91 µM). `O=C1N[C@@H](Cc2ccc(O)cc2)C(=O)N(O)[C@H]1Cc1c[nH]c2ccccc12` [Example 60]: the IC50 in assay [3] worked out at 6 µg/mL (≈ 16.4 µM); in assay [2], 10 µg/mL (≈ 27.4 µM). Consider `O=C1[C@@H]2CCCN2C(=O)[C@H](Cc2c[nH]c3ccccc23)N1O` [Example 64], for which, in assay [3], the IC50 was less than 3 µg/mL.

For the origin of these results see US5607934A, “Piperazine derivatives and salts thereof” (Otsuka Pharmaceutical Co., Ltd., priority 1993, dated 1997).
